How the values were obtained:
Type in all cases: cell-based, human
4B8^ΔN cells = assay: OCR, ECAR, FPT intensity and MMP in 4B8 cells complemented with NTD-truncated MFSD7C; details: heme 1 hour
Protocol: FIGS. 4A-4H show NTD of MFSD7C mediates heme effect on mitochondrial respiration. FIGS. 4A-4C show comparison of basal OCR (FIG. 4A), maximal OCR (FIG. 4B) and ECAR (FIG. 4C) of THP-1, 4B8, and 4B8^FL and 4B8^ΔN cells treated with vehicle or heme for 1 hour (n=18 separate experiments). […] Cells were incubated with FPT for 6 hrs, washed and reseeded in poly-lysine coated glass bottom dishes. After cells attached to the glass, medium containing 40 μM heme was added. Cells in the same field were imaged immediately and again 1 hour later. Relative FPT fluorescent intensities, normalized to THP-1, from three experiments are shown. (n=3 independent experiments). […] THP-1, 4B8, 4B8^FL and 4B8^ΔN cells were treated with vehicle or heme for 1 hour and MMP was measured by using JC-10 Mitochondrial Membrane Potential Assay Kit followed by flow cytometry. […] Shown are representative Western blotting data (FIG. 4G) and quantification of band intensities from n=3 independent experiments (FIG. 4H). P-values were calculated using two-way ANOVA (*p<0.05, **p<0.01, ***p<0.005). […]
Measurements of OCR, ECAR, and MMP. Oxygen consumption rate (OCR) and extracellular acidification rate (ECAR) were measured using XF96e Seahorse Extracellular Flux Analyzer per manufacturer's protocol. […]

THP-1 cells [1] = assay: Oxygen consumption rate (Seahorse XF96e), parental THP-1 cells; details: 40 μM heme for one hour vs vehicle
Protocol: Measurements of OCR, ECAR, and MMP. Oxygen consumption rate (OCR) and extracellular acidification rate (ECAR) were measured using XF96e Seahorse Extracellular Flux Analyzer per manufacturer's protocol. To increase adherence of suspension cells, Seahorse plates were coated with Corning® Cell TAK (Catalog No. 354240). THP-1 and 7CKO cells were then attached to the plate according to the manufacturer's instructions. Cells were incubated in complete RPMI media with or without 40 μM heme. Changes in oxygen consumption were measured following treatment with oligomycin (5 μM), FCCP (2 μM), and rotenone (1 μM) plus antimycin A (1 μM). For BMDM, 5×10^5 cells/well were plated in 100 μL of BMDM media, 24 hours before the start of the assay. For OCR measurements, BMDM media was replaced with 180 μL of Seahorse XF Base Medium supplemented with 10 mM D-glucose, 1 mM sodium pyruvate, and 1 mM L-glutamine. For ECAR measurements, BMDM media was replaced with 180 μL of Seahorse XF RPMI Medium pH 7.4 supplemented with 2 mM L-glutamine. The Glycolysis Stress Test was performed using D-glucose, rotenone/antimycin A, and 2-deoxy-D-glucose at 10 mM, 0.5 μM, and 50 mM final concentration, respectively.

THP-1 cells [2] = assay: Cellular energy charge (ATP/ADP ratio); details: heme 1 hour, reduced to similar levels as in 7CKO cells
Protocol: Measurement of cellular energy charge (ATP/ADP ratio). ATP/ADP ratio was measured using ADP Assay Kit (Sigma Catalog No. MAK133-1KT) following manufacturer's protocol. For THP-1 cells, 24 hours before the experiment, cells were resuspended in fresh complete RPMI media. For heme treatment, 1 mL of treated cell suspension was incubated for 1 hour at 37° C. cell culture incubator, then centrifuged and resuspended in 1 mL of fresh warm complete RPMI media in order to wash off excess heme, which interferes with the assays. […] per well (approximately 10,000 cells total) was placed in a white 96-well plate, lysed with 90 μL of ATP Buffer, and incubated with gentle shaking at room temperature for 10 min. Relative ATP amount was directly measured using luminescence. Then, 5 μL of ADP Enzyme mix was added to each well and the plate was incubated with light shaking for 3 minutes. Relative amount of ADP+ATP was measured using luminescence. ADP amount was calculated by subtracting the ATP signal from ADP+ATP signal. To get ATP/ADP ratio, ATP signal was divided by the calculated ADP signal. For BMDMs, the assay was performed following the same protocol but using 20,000 cells per well.

With `C=CC1=C(C)c2cc3[n-]c(cc4[n-]c(cc5nc(cc1n2)C(C)=C5C=C)c(C)c4CCC(=O)O)c(CCC(=O)O)c3C.[Fe+2]` [heme] the “response to heme (OCR, ECAR, FPT intensity, MMP)” value (4B8^ΔN cells) was “little to no response to heme”, the “basal OCR” value (THP-1 cells [1]) was “increased” and the “maximal OCR” value (THP-1 cells [1]) was “increased”. The ATP/ADP ratio (THP-1 cells [2]) was “reduced”.

Reference: patent publication US20230313199A1, “TARGET FOR MODULATING BODY MASS” (Massachusetts Institute of Technology, priority 2020, published 2023)
